US7250153B2, “Contrast media formulations having improved biological tolerance” (Biophysica Research, Inc., priority 2002, dated 2007)
“And” between values parts separate entries of the source, which are not always exact repeats. Equal values may be shown once. Read-outs that look alike come from different tables or passages of the source.

Experiments:
[1] = Stability of iosimenol to autoclave sterilization (20 min at 121° C.), free iodide measured; format: physicochemical; conditions: for I− after / I− before: single samples
Description: Samples of Iosimenol were formulated in 20 mM TRIS+5 mM citric acid, TRIS/HCl and 10 mM TRIS+3.3 mM citrate. Samples were then autoclaved for 20 minutes at 121° C. and the amounts of free iodine measured.
(§1) A 5 micron C18 column 25 cm×4.6 mm ID was eluted with 30% acetonitrile/70% 0.05 M KH2PO4 containing 7 ml/L of 40% tetrabutyl ammonium hydroxide. 20 μl of a 10 μg I^−/ml was the standard. 20 μl of a test sample of iosimenol was injected and UV absorbance measured at 230 nm, 0.2 AU. Under these conditions, the iodide standard eluted after 5.6 minutes and gave an area of “X” counts.
(§2) Iodide was alternately determined by extraction and spectrophotometry according to USP24/NF19, p 911 (1995). In general, the solution containing iodide is oxidized in the presence of acid, with sodium nitrite and then extracted into toluene which is then read at a wavelength of 500 nm. Comparison of standard samples with experimental samples yields the amount of iodide present in the sample.

[2] = system: rats; experiment: Intravenous LD50 (systemic tolerance) in rats; format: in vivo
Description: (§3) To examine the effects of the TRIS/citrate buffer system of this invention on the biological tolerance, using standard methods, we assessed intravenous murine and rat LD50 of iosimenol formulated either in TRIS/HCl or in the novel TRIS/citric acid buffers, and compared the results with those published for the clinically employed nonionic dimer iodixanol (formulated in TRIS/HCl buffer; Heglund IF et al., Acta Radiol. Suppl. 1995:399:69-82). Murine and rat LD50 were obtained by 1 ml/min injection of 340 mg I/ml; data at 7 days and based on the 50% survival of the animals was expressed as g I/kg bw (Table 3).

[3] = Separate study: stability of iosimenol after autoclaving in TRIS/HCl and TRIS/citric acid (pH, iodide release); format: physicochemical; conditions: 121° C. for 20 min; for pH after autoclaving / ΔI−: pre-autoclaving pH 7.00, Ca/Na EDTA 0.1 mg/ml, 340-355 mg I/ml
Description: as §1, §2

[4] = system: mice; experiment: Intravenous LD50 (systemic tolerance) in mice; format: in vivo
Description: as §3

[5] = system: mice; conditions: Control, formulated in TRIS/HCl; intravenous; published (Heglund et al. 1995); cited from earlier work
[6] = system: rats; conditions: Control, formulated in TRIS/HCl; intravenous; published (Heglund et al. 1995); cited from earlier work
[7] = Buffer 10 mM TRIS + 3 mM citric acid

In the case of `NC(=O)c1c(I)c(C(=O)NCC(O)CO)c(I)c(N(CC(O)CO)C(=O)CC(=O)N(CC(O)CO)c2c(I)c(C(N)=O)c(I)c(C(=O)NCC(O)CO)c2I)c1I` (stereo not shown) [Iosimenol, N,N′-Bis[3-carbamoyl-5-(2,3-dihydroxypropyl-carbamoyl)-2,4,6-triiodophenyl]-N,N′-bis(2,3-dihydroxypropyl)-malonamide], the “Stability on autoclaving (in words)” value ([1]; 20 mM TRIS and 5 mM citric acid, pH about 6.5 to 7.5, compared with TRIS/HCl or TRIS/citrate in molar equivalent ratio) is reported as “always somewhat less or equally stable”, the “I− after, Avg.” value ([1]; Buffer 10 mM TRIS + 3.3 mM citrate, after 20 min at 121° C., average) is reported as 21.84 µg/mL and the “I− after” value ([1]; Buffer 10 mM TRIS + 3.3 mM citrate, after 20 min at 121° C.) is reported as 22.34 µg/mL and 21.51 µg/mL and 21.66 µg/mL. The “ΔI−” value ([1]; Buffer 10 mM TRIS + 3.3 mM citrate, after minus before 20 min at 121° C.) was “+17.84 μg/ml”, the “I− before, Avg.” value ([1]; Buffer 10 mM TRIS + 3.3 mM citrate, before autoclaving, average) was 4.00 µg/mL and the “I− before” value ([1]; Buffer 10 mM TRIS + 3.3 mM citrate, before autoclaving) was 3.99 µg/mL and 4.17 µg/mL and 3.83 µg/mL. For the same molecule, the “I− after, Avg.” value ([1]; Buffer 20 mM TRIS + 5 mM citric acid, after 20 min at 121° C., average) was 16.90 µg/mL, the “I− after” value ([1]; Buffer 20 mM TRIS + 5 mM citric acid, after 20 min at 121° C.) was 15.80 µg/mL and 15.96 µg/mL and 16.11 µg/mL and 16.53 µg/mL and 18.87 µg/mL and 18.13 µg/mL and the “ΔI−” value ([1]; Buffer 20 mM TRIS + 5 mM citric acid, after minus before 20 min at 121° C.) was “+12.90 μg/ml”. The “I− before, Avg.” value ([1]; Buffer 20 mM TRIS + 5 mM citric acid, before autoclaving, average) was 4.00 µg/mL, the “I− before” value ([1]; Buffer 20 mM TRIS + 5 mM citric acid, before autoclaving) was 4.08 µg/mL and 3.94 µg/mL and 3.42 µg/mL and 3.59 µg/mL and 4.44 µg/mL and 4.52 µg/mL and the “I− after, average (row not labelled)” value ([1]; Buffer 20 mM TRIS/HCl, after 20 min at 121° C., average) was 14.22 µg/mL. For the same molecule, the “I− after” value ([1]; Buffer 20 mM TRIS/HCl, after 20 min at 121° C.) was 14.07 µg/mL and 14.19 µg/mL and 14.39 µg/mL, the “ΔI− (row not labelled)” value ([1]; Buffer 20 mM TRIS/HCl, after minus before 20 min at 121° C.) was “+9.89 μg/ml” and the “I− before, average (row not labelled)” value ([1]; Buffer 20 mM TRIS/HCl, before autoclaving, average) was 4.33 µg/mL. The “I− before” value ([1]; Buffer 20 mM TRIS/HCl, before autoclaving) was 4.29 µg/mL and 4.44 µg/mL and 4.27 µg/mL, the “Stability under autoclaving (in words)” value ([1]; carboxylic acid neutralized by an amine, compared with TRIS/carboxylic acid where TRIS prevailed or TRIS/HCl) was “less stable” and the LD50 rats ([2]; 20 mM TRIS + 5 mM citric acid, intravenous, 1 ml/min injection of 340 mg I/ml, data at 7 days) was 23.5 g I/kg bw. For the same molecule, the LD50 rats ([2]; rat, in vivo, iv) was 20.0 g I/kg bw, the “LD50 in 20 mM TRIS with 5 mM citrate compared with 20 mM TRIS/HCl (in words)” value ([2]; rat, intravenous) was “statistically significantly higher LD50” and the pH after autoclaving [3, 7] was 6.90. The “ΔI−” value [3, 7] was “+24.2 μg/ml”, the pH after autoclaving ([3]; Buffer 10 mM TRIS/HCl) was 6.49 and the “ΔI−” value ([3]; Buffer 10 mM TRIS/HCl) was “+8.7 μg/ml”. For the same molecule, the pH after autoclaving ([3]; Buffer 20 mM TRIS/HCl) was 7.00, the “ΔI−” value ([3]; Buffer 20 mM TRIS/HCl) was “+7 μg/ml” and the “Stability after autoclaving (in words)” value ([3]; TRIS/citric acid in a non-equivalent ratio compared with TRIS/HCl buffer) was “lower stability”. For the same molecule, the LD50 mice ([4]; mouse, in vivo, iv) was 22.0 g I/kg bw and the “LD50 in 20 mM TRIS with 5 mM citrate compared with 20 mM TRIS/HCl (in words)” value ([4]; murine, intravenous) was “statistically significantly higher LD50”.
In the case of `CC(=O)N(CC(O)CN(C(C)=O)c1c(I)c(C(=O)NCC(O)CO)c(I)c(C(=O)NCC(O)CO)c1I)c1c(I)c(C(=O)NCC(O)CO)c(I)c(C(=O)NCC(O)CO)c1I` (stereo not shown) [Iodixanol], the LD50 mice [5] is given as 21.0 g I/kg bw and the LD50 rats [6] is given as 21.0 g I/kg bw.
